From patent US20250000128A1, “SALTINESS ENHANCING COMPOSITION, AND COMPOSITION FOR ORAL USE AND METHOD OF ENHANCING SALTINESS THEREOF” (Nagase Viita Co., Ltd., priority 2021, published 2025) come the findings set out here.

The nature of the experiment: Sensory evaluation of saltiness enhancing effect in aqueous salt solution (Experiments 2 and 3). Further: key: A test sample for which the majority of the expert panelists evaluated as having a stronger saltiness than the control sample was determined as having a saltiness enhancing effect (Good); a sample for which they did not so was determined as having no saltiness enhancing effect (Bad); *2: Undetermined whether saltiness was enhanced or not due to strong bitterness. The class given is in vivo, human. As for the experimental part:
The preparation of 3″-α-GN prepared in Experiment 1, Sunphenon EGCg-OP (from Taiyo Kagaku Co., Ltd., epigallocatechin gallate (EGCg), 95.3% pure), naringin (from Sichuan Xinhua Health Biotechnology Co., Ltd., 98.2% pure) or Hayashibara Hesperidin S (from Hayashibara Co., Ltd., monoglucosyl hesperidin, 82.1% pure), and salt (from The Salt Industry Center of Japan, the purity of sodium chloride was 99% or higher) were dissolved in pure water to give concentrations as shown in Table 1 below for preparing aqueous solutions of a control sample and test samples 1-1 to 1-5. Then, 9 panelists competent in food sensory evaluation who had passed the five-taste test (hereinafter referred to as “expert panelists”) conducted sensory evaluation tests on the test samples. Specifically, each of the expert panelists held a room-temperature control sample and a room-temperature test sample in her/his mouth and evaluated whether the saltiness of the test sample was weaker, similar, or stronger than that of the control sample, and recorded the overall taste.
Control samples 2 and 3 and test samples 9 and 10 were prepared as in Experiment 2, except that the concentrations of 3″-α-GN and salt were changed as shown in Table 2 below. Sensory evaluation tests were then conducted as in Experiment 2 to evaluate the intensity of saltiness of the test samples including 3″-α-GN as compared with the control samples of the same salt concentrations.

Where [1] appears, read: 5 ppm in water, salt 0.5 mass % (test samples 3, 6, 7).

For the compound “monoglucosyl hesperidin [reference compound]”, the Saltiness enhancing effect entry (4 ppm in water, salt 0.5 mass % (test sample 8)) is listed as “Bad”.

Take `O=C(O[C@@H]1Cc2c(O)cc(O)cc2O[C@@H]1c1cc(O)c(O)c(O)c1)c1cc(O)c(O)c(O)c1` [EGCg, epigallocatechin gallate, reference compound]: the Saltiness enhancing effect result under setting [1] was “Bad”.

For the compound `CC1O[C@@H](OC2C(O[C@H]3OC(CO)[C@@H](O)C(O)C3O)[C@H](O)C(CO)O[C@H]2Oc2cc(O)c3c(c2)OC(c2ccc(O)cc2)CC3=O)C(O)C(O)[C@H]1O` (stereo partly drawn) [3″-α-GN, 3″-α-monoglucosyl naringin], the Saltiness enhancing effect entry is on record as “Good” (0.1 ppm in water, salt 0.5 mass %, G/S 0.02×10^−3 (test sample 1 vs control sample 1)); “Good” (1 ppm in water, salt 0.5 mass %, G/S 0.2×10^−3 (test sample 2)); “Good” (1 ppm in water, salt 1 mass %, G/S 0.1×10^−3 (test sample 9 vs control sample 2)); “Good” (1 ppm in water, salt 2 mass %, G/S 0.05×10^−3 (test sample 10 vs control sample 3)); “Good” under setting [1]; “Good” (10 ppm in water, salt 0.5 mass %, G/S 2.0×10^−3 (test sample 4)). The Saltiness enhancing effect entry (40 ppm in water, salt 0.5 mass %, G/S 8.0×10^−3 (test sample 5)) is reported as “*2”.

For `C[C@@H]1O[C@@H](O[C@H]2[C@H](Oc3cc(O)c4c(c3)O[C@H](c3ccc(O)cc3)CC4=O)O[C@H](CO)[C@@H](O)[C@@H]2O)[C@H](O)[C@H](O)[C@H]1O` [Naringin, naringin, reference compound], the Saltiness enhancing effect result under setting [1] is given as “Bad”.
